From ChEMBL document CHEMBL1121730, “beta-Adrenergic blocking agents. alpha- and gamma-methyl(aryloxy)propanolamines” (J Med Chem, 1981)

target: Adrenergic receptor beta (Rattus norvegicus, UniProt P18090+P10608+P26255); assay: Binding affinity against Beta adrenergic receptor in C6-2B astrocytoma cells, using [125I]-iodohydroxybenzylpindolol-benzylpindolol([125I]-HYP); format: cell-based

Point of comparison: `CC(C)NCC(O)C(C)Oc1ccc(Cl)c(Cl)c1` (stereo not given), Kd 500 nM. Against it:
- C=CCc1ccccc1OC(C)C(O)CNC(C)C (stereo not given) — 10-fold lower, 50 nM
- CCc1ccc(OC(C)C(O)CNC(C)(C)C)cc1 (stereo not given) — 4-fold higher, 2000 nM
- CCc1ccc(OC(C)C(O)CNC(C)C)cc1 (stereo not given) — 4-fold higher, 2000 nM
- Cc1ccc(OC(C)C(O)CNC(C)C)cc1C (stereo not given) — 2.5-fold lower, 200 nM
- CC(Oc1ccccc1)C(O)CNC(C)(C)C (stereo not given) — 1.7-fold lower, 300 nM
- Cc1ccc(OC(C)C(O)CNC(C)(C)C)cc1C (stereo not given) — 2.5-fold lower, 200 nM
- CC(C)NCC(O)C(C)Oc1cccc2ccccc12 (stereo not given) — 12-fold lower, 40 nM
- CC(Oc1cccc2ccccc12)C(O)CNC(C)(C)C (stereo not given) — 100-fold lower, 5 nM
- C=CCc1ccccc1OC(C)C(O)CNC(C)(C)C (stereo not given) — 33-fold lower, 15 nM
